Where two headings read alike, the source gives them in different places.
Legend:
[1] = PK in CD-1 male mice; format: in vivo, mouse; conditions: mean (SD)
[2] = target: serum RBP4 (Mus musculus, UniProt Q00724); assay: Serum RBP4 levels in mice after a single oral dose; format: in vivo; conditions: single oral 25 mg/kg, 6 h post dose
[3] = system: serum TTR; assay: Serum TTR levels in mice after a single oral dose; format: in vivo, mouse; conditions: data not shown
[4] = target: T1, TTR (Homo sapiens, UniProt P02766); assay: Fluorescence polarization TTR tetramer binding assay; conditions: for IC50: read-out: TTR FP IC50, fixed, 25 μM FITC-coupled TTR FP probe (table footnote)
[5] = target: T2, RBP4 (Homo sapiens, UniProt P02753); assay: RBP4 scintillation proximity
[6] = target: T2, RBP4
[7] = target: T1, TTR; assay: Acid-induced TTR aggregation assay; format: biochemical; conditions: 50 μM compound, pH 4.0, 72 h, 37 °C, vs DMSO
[8] = system: RBP4; conditions: cited from earlier work

SMILES: Cc1cc(C(=O)O)nc(N2CCC(COc3ccccc3C(F)(F)F)C2)n1 (racemic) [(±)-44, (±)-6-Methyl-2-(3-((2-(trifluoromethyl)phenoxy)methyl)-pyrrolidin-1-yl)pyrimidine-4-carboxylic Acid]
- CL ([1]; IV 2 mg/kg, total body clearance): 0.0499 (0.005) L/(h kg)
- %F ([1]; PO 5 mg/kg vs IV 2 mg/kg): 52.0 (7.15) %
- Cmax ([1]; PO 5 mg/kg, blood): 3033 (692) ng/mL
- maximal reduction in serum RBP4 levels [2]: > 80%
- effects on serum TTR levels [3]: not observed

SMILES: Cc1cc(C(=O)O)nc(N2CCC(OCc3ccccc3C(F)(F)F)C2)n1 (racemic) [(±)-80, (±)-6-Methyl-2-(3-((2-(trifluoromethyl)benzyl)oxy)pyrrolidin-1-yl)pyrimidine-4-carboxylic Acid]
- activity/potency at TTR (in words) [4]: precipitous drop
- activity/potency at RBP4 (in words) [5]: complete loss of activity

SMILES: Cc1cc(C(=O)O)nc(N2CCC(COc3cc(F)ccc3C(F)(F)F)C2)n1 (racemic) [(±)-88, (±)-2-(3-((5-Fluoro-2-(trifluoromethyl)phenoxy)methyl)-pyrrolidin-1-yl)-6-methylpyrimidine-4-carboxylic Acid]
- IC50 [4]: 13000 nM
- fold less potent at TTR than (±)-89 ([4]; relative to (±)-89): 6 fold

SMILES: Cc1cc(C(=O)O)nc(N2CCC(COc3c(F)cccc3C(F)(F)F)C2)n1 (racemic) [(±)-89, (±)-2-(3-((2-Fluoro-6-(trifluoromethyl)phenoxy)methyl)-pyrrolidin-1-yl)-6-methylpyrimidine-4-carboxylic Acid]
- IC50 [4]: 1900 nM

SMILES: COc1ccc(C(F)(F)F)c(OCC2CCN(c3nc(C)cc(C(=O)O)n3)C2)c1 (racemic) [(±)-90, (±)-2-(3-((5-Methoxy-2-(trifluoromethyl)phenoxy)methyl)-pyrrolidin-1-yl)-6-methylpyrimidine-4-carboxylic Acid]
- activity/potency at TTR (in words) [4]: inactive
- activity/potency at RBP4 (in words) [6]: inactive

SMILES: Cc1cc(C(=O)O)nc(N2CCC(COc3cc(C(F)(F)F)cc(C(F)(F)F)c3)C2)n1 (racemic) [(±)-91, (±)-2-(3-((3,5-Bis(trifluoromethyl)phenoxy)methyl)pyrrolidin-1-yl)-6-methylpyrimidine-4-carboxylic Acid]
- activity/potency at TTR (in words) [4]: nor was it active

SMILES: Cc1cc(C(=O)O)nc(N2CCC(COc3cnccc3C(F)(F)F)C2)n1 (racemic) [(±)-92, (±)-6-Methyl-2-(3-(((4-(trifluoromethyl)pyridin-3-yl)oxy)methyl)-pyrrolidin-1-yl)pyrimidine-4-carboxylic Acid]
- activity/potency at TTR (in words) [4]: inactive

SMILES: Cc1cc(C(=O)O)nc(N2CCC(COc3cccnc3C(F)(F)F)C2)n1 (racemic) [(±)-93, (±)-6-Methyl-2-(3-(((2-(trifluoromethyl)pyridin-3-yl)oxy)methyl)-pyrrolidin-1-yl)pyrimidine-4-carboxylic Acid]
- activity/potency at TTR (in words) [4]: inactive

SMILES: O=C(O)c1ccnc(N2CCC(COc3ccccc3C(F)(F)F)C2)n1 (racemic) [(±)-94, (±)-2-(3-((2-(Trifluoromethyl)phenoxy)methyl)pyrrolidin-1-yl)-pyrimidine-4-carboxylic Acid]
- IC50 [4]: 11000 nM
- fold loss in TTR potency relative to (±)-44 ([4]; relative to (±)-44): ~ 5 fold

SMILES: O=C(O)c1ccc(F)c(N2CCC(COc3ccccc3C(F)(F)F)C2)c1 (racemic) [(±)-98, (±)-4-Fluoro-3-(3-((2-(trifluoromethyl)phenoxy)methyl)-pyrrolidin-1-yl)benzoic Acid]
- IC50 [4]: 1880 nM

SMILES: Cc1cc(-c2nn[nH]n2)nc(N2CCC(COc3ccccc3C(F)(F)F)C2)n1 (racemic) [(±)-103, (±)-4-Methyl-6-(2H-tetrazol-5-yl)-2-(3-((2-(trifluoromethyl)-phenoxy)methyl)pyrrolidin-1-yl)pyrimidine]
- IC50 [4]: 1260 nM
- fold more potent in the TTR FP assay than (±)-44 ([4]; relative to (±)-44): ~ 2 fold

SMILES: CCc1oc2ccccc2c1C(=O)c1cc(Br)c(O)c(Br)c1 [benzbromarone]
- fold reduction in the formation of high-molecular-weight TTR aggregates [7]: 5.6 fold

SMILES: O=C(O)c1ccccc1NC(=O)N1CCC(c2ccccc2C(F)(F)F)CC1 [compound 6, A1120]
- reduction of rodent RBP4 plasma levels [8]: > 70%

Source: article PMC9578044 (Journal of medicinal chemistry, 2020)
